Data taken from article PMC3456924, “Single-dose pharmacokinetic and toxicity analysis of pyrrole–imidazole polyamides in mice” (Cancer Chemotherapy and Pharmacology, 2012).
Where “and” joins values, the source holds several entries; their conditions need not be identical. Equal entries are not always repeated. Entries after “also recorded” stand apart in the source; their conditions may differ. Where two headings read alike, the source gives them in different places.

Columns and labels:
C57BL/6 mice = experiment: Toxicity (weight loss, signs of duress) after a single SC injection; conditions: for additional signs of duress / dose level with critical (>15 %) / dose-limiting weight loss: single SC injection, 7-day observation
Text: Four animals were used in each group unless otherwise noted.

[1] = Tissue distribution (liver, kidney, lung) after a single IV injection; type: in vivo, BALB/C mice; conditions: for Tmax / concentration at 24 h: female, BALB/C, mouse; for concentration at 24 h: experiment endpoint (24 h), read-out: concentration remaining in the liver at the experiment endpoint; for AUC (AUC0–24h) kidney / C max kidney / AUC (AUC0–24h) liver / C max liver / AUC (AUC0–24h) lung / C max lung: 7.5 mg/kg (1), 5 mg/kg (2); for concentration in the lung maintained over the entire time course: lowest level over 24 h
Method: (§1) Pyrrole–imidazole polyamide pharmacokinetic studies were performed in 10- to 12-week-old female BALB/C mice (Charles River). Polyamides were solubilized in PBS (1) or PBS/DMSO (2) and administered via intravenous (IV) tail vein injection at concentrations of 7.5 and 5 mg/kg, respectively. For each experiment, groups of 3 animals were euthanized at 0.083, 0.25, 0.5, 1, 2, 4, 8, and 24 h after injection. Animals designated for the 4, 8, and 24 h time points were housed in metabolic cages for collection of urine and feces as described below. All animals used in the pharmacokinetic experiments were performed under an approved protocol at the City of Hope.
Distribution of polyamides 1 and 2 was determined in the liver, kidneys, and lungs. The organs were harvested post-euthanasia and prepared via similar processes. A piece of the mouse organ was weighed and mixed with distilled water (3 μL/mg tissue). The tissue was then homogenized by pulsing three times on a TissueLyser for 2 min each at 30 Hz. Next, 30 μL of the tissue homogenate was mixed with 20 μL of 50 % MeOH and 50 % aqueous 1 % HOAc. The mixture was then vortex mixed with 0.12 mL 0.5 % HOAc in MeOH/ACN (2:8) and 20 μL of 6.0 μg/mL INS in MeOH/1 % aqueous HOAc (1:1) for 10 min and centrifuged at the highest setting for an additional 10 min. Samples treated with polyamide 1 were then diluted with 50 % MeOH/ACN (4:6) and 50 % aqueous 1 % HOAc. Samples treated with polyamide 2 were diluted with 50 % MeOH/ACN (4:6) and 50 % aqueous 3 % FA.
(§2) Plasma pharmacokinetic parameters were derived from polyamide concentration profiles using both non-compartmental and compartmental methods. Non-compartmental analysis was performed according to statistical moment theory and the rule of linear trapezoids, while compartmental analysis was performed in ADAPT II [24]. Pharmacokinetic parameters estimated from the non-compartmental analysis include the maximum concentration (C max), the terminal elimination half-life (t 1/2), the mean residence time (MRT), the area under the concentration curve (AUC0–24h), the AUC extrapolated to infinity (AUC0–∞), and the clearance (CL). Additional plasma pharmacokinetic parameters determined from the compartmental analysis include the alpha and beta half-lives (t 1/2) and the apparent volume of distribution (V d). Tissue pharmacokinetic parameters were determined non-compartmentally and included the C max and AUC0–24h. Urinary and fecal excretion data were expressed as the cumulative percentage of the administered dose.

[2] = Plasma pharmacokinetics after a single IV tail vein injection; type: in vivo, BALB/C mice; conditions: for half-life / Cmax / AUC(0-inf) / clearance: iv; for concentration at 24 h: 24 h after single IV, read-out: average plasma concentration 24 h postinjection
Method: as §1
Concentrations of polyamides 1 and 2 were analyzed by LC/MS/MS using a Waters Acquity UPLC system (Milford, MA, USA) interfaced with a Waters Quattro Premier XE Mass Spectrometer. HPLC separation was achieved using a Jupiter 4u Proteo 90A 150 × 2.0 mm column (Phenomenex, Torrance, CA, USA) proceeded by a Phenomenex C8 guard column (Torrance, CA, USA). The column temperature was maintained at 30 °C. The mobile phase consisted of A (0.05 % acetic acid in water) and B (0.05 % acetic acid in acetonitrile). The following gradient program was used: 8 % B (0–1 min, 0.3 ml/min), 16 % B (3 min, 0.3 ml/min), 58 % B (6 min, 0.3 ml/min), 90 % B (7 min, 0.3 ml/min), and 8 % B (7.3 min, 0.3 ml/min). The total run time was 11.5 min. The auto-injector temperature was maintained at 5 °C. The strong needle wash solution was 5 % formic acid in MeOH/ACN (2:8) for both compounds, and the weak needle wash solution was 30 % MeOH in water for compound 1 and 50 % ACN in water for compound 2. The electrospray ionization source of the mass spectrometer was operated in positive ion mode with a cone gas flow of 50 L/hr and a desolvation gas flow of 700 L/hr. The capillary voltage was set to 3.2 kV, and the cone and collision cell voltages were optimized to 32 and 27 V for 1 and the INS 3. Voltages were optimized to 31 and 20 V for 2 and the INS 4. The source temperature was 125 °C, and the desolvation temperature was 470 °C. A solvent delay program was used from 0 to 4.0 min and from 6.1 to 11.5 min to minimize the mobile phase to flow to the source. MassLynx version 4.1 software was used for data acquisition and processing.
Plasma and urine samples were prepared for LC/MS/MS analysis by mixing 30 μL of plasma with 20 μL of 50 % MeOH and 50 % aqueous 1 % HOAc. The mixture was vortexed and mixed with an additional 120 μL of 0.5 % HOAc in MeOH/ACN (4:6) and 20 μL of 6.0 μg/mL INS in MeOH/1 % aqueous HOAc (1:1). The mixture was vortexed again for 2 min and centrifuged at the highest setting for 4 min. Next, 20 μL of the supernatant was transferred to a new tube and mixed with 180 μL of 50 % MeOH/ACN (4:6) and 50 % aqueous 1 % HOAc.
Standard curves were prepared mixing untreated plasma with 20 μL of 50 % MeOH and 50 % aqueous 1 % HOAc prepared with various concentrations of 1 and 2. Internal standards were added as described above.
as §2, with “Urinary and fecal excretion data were expressed as the cumulative percentage of the administered dose.” left out

[3] = female, BALB/C, mouse, plasma, compartmental analysis, single IV, 7.5 mg/kg (1), 5 mg/kg (2)
[4] = female, BALB/C, mouse, plasma, non-compartmental analysis, single IV, 7.5 mg/kg (1), 5 mg/kg (2)
[5] = female, BALB/C, mouse, plasma, 7.5 mg/kg (1), 5 mg/kg (2)
[6] = plasma, compartmental analysis, single IV, 7.5 mg/kg (1), 5 mg/kg (2)
[7] = plasma, non-compartmental analysis, single IV, 7.5 mg/kg (1), 5 mg/kg (2)

With `CN(CCCNC(=O)c1cccc(C(=O)O)c1)CCCNC(=O)c1cc(NC(=O)c2cc(NC(=O)c3cc(NC(=O)c4nc(NC(=O)[C@H](N)CCNC(=O)c5cc(NC(=O)c6cc(NC(=O)c7cc(NC(=O)c8nccn8C)cn7C)cn6C)cn5C)cn4C)cn3C)cn2C)cn1C` [Polyamide 1] the “additional signs of duress” value (C57BL/6 mice) was “no additional sign of duress was observed”, the “dose level with critical (>15 %) / dose-limiting weight loss” value (C57BL/6 mice) was 10 mg/kg and the Tmax ([1]; kidney, single IV, read-out: time of maximum concentration in kidney postinjection (converted)) was 0.0833 h. For the same compound, the concentration at 24 h ([1]; liver, single IV) was 4800 ± 300 ng/g, the Tmax ([1]; liver, single IV, read-out: time of maximum concentration in liver postinjection (converted)) was 0.0833 h and the Tmax ([1]; lung, single IV, read-out: time of peak concentration in lung following injection (converted)) was 0.25 h. For the same compound, the “AUC (AUC0–24h) kidney” value ([1]; kidney, single IV) was 299.2 µg·h/g, the C max kidney ([1]; kidney, single IV) was 27.0 ± 2.9 µg/g and the “AUC (AUC0–24h) liver” value ([1]; liver, single IV) was 157.7 µg·h/g. For the same compound, the C max liver ([1]; liver, single IV) was 11.7 ± 1.3 µg/g, the “concentration in the lung maintained over the entire time course” value ([1]; lung, single IV) was “above 2.8 ± 0.2 μg/g” and the “AUC (AUC0–24h) lung” value ([1]; lung, single IV) was 130.6 µg·h/g. For the same compound, the C max lung ([1]; lung, single IV) was 16.4 ± 1.4 µg/g, the half-life ([2]; female, BALB/C, mouse, plasma, plasma, compartmental analysis, single IV, 7.5 mg/kg (1), 5 mg/kg (2), read-out: t 1/2 α (initial) (converted)) was 0.5 h and the half-life ([2]; female, BALB/C, mouse, plasma, plasma, compartmental analysis, single IV, 7.5 mg/kg (1), 5 mg/kg (2), read-out: t 1/2 β (terminal) (converted)) was 4.6 h. For the same compound, the half-life ([2]; female, BALB/C, mouse, plasma, plasma, non-compartmental analysis, single IV, 7.5 mg/kg (1), 5 mg/kg (2), read-out: Elimination t 1/2 (converted)) was 5.2 h, the Cmax ([2]; female, BALB/C, mouse, plasma, compartmental analysis (2-compartment model), single IV, 7.5 mg/kg (1), 5 mg/kg (2)) was 43600 ng/mL and the AUC(0-inf) [2, 3] was 67500 ng·h/mL. The clearance [2, 3] was 0.035 mL/min, the AUC(0-inf) [2, 4] was 77400 ng·h/mL and the clearance [2, 4] was 0.03 mL/min. The Cmax ([2]; female, BALB/C, mouse, plasma, non-compartmental analysis, single IV, 7.5 mg/kg (1), 5 mg/kg (2), mean ± S.D., n = 3) was 49400 ± 11200 ng/mL, the concentration at 24 h [2, 5] was 210 ± 100 ng/mL and the Vd ([2]; female, BALB/C, mouse, plasma, compartmental analysis, single IV, 7.5 mg/kg (1), 5 mg/kg (2), read-out: V d) was 0.0081 L. The AUC(0-t) [2, 4] was 75800 ng·h/mL, the MRT ([2]; female, BALB/C, mouse, plasma, non-compartmental analysis, single IV, 7.5 mg/kg (1), 5 mg/kg (2), read-out: MRT) was 3.3 h and the “maximum plasma concentration relative to effective concentration for PSA mRNA downregulation in cell culture” value ([2]; plasma C max vs cell culture effective concentration) was “over 3 times”.
For `CC(=O)N[C@@H](CNC(=O)c1cc(NC(=O)c2cc(NC(=O)c3cc(NC(=O)c4nccn4C)cn3C)cn2C)cn1C)CC(=O)Nc1cn(C)c(C(=O)Nc2cc(C(=O)Nc3cc(C(=O)Nc4cc(C(=O)NCCCN(C)CCCNC(=O)c5cccc(C(=O)O)c5)n(C)c4)n(C)c3)n(C)c2)n1` [Polyamide 2], the “relative toxicity in weight curve experiments” value (C57BL/6 mice; single SC injection of 1 and 2) was “more toxic”, the “additional signs of duress” value (C57BL/6 mice) was “multiple signs of duress such as loss of ambulation and hunched posture in addition to weight loss; also recorded: additional signs of physical duress in addition to weight loss at all concentrations except 1.1 mg/kg” and the “dose level with critical (>15 %) / dose-limiting weight loss” value (C57BL/6 mice) was 4.5 mg/kg and 2.3 mg/kg. The concentration at 24 h ([1]; liver, single IV) was 17400 ± 8100 ng/g, the “time of maximum concentration in kidney postinjection” value ([1]; kidney, single IV) was 5 min and the “AUC (AUC0–24h) kidney” value ([1]; kidney, single IV) was 424.7 µg·h/g. The C max kidney ([1]; kidney, single IV) was 35.1 ± 2.8 µg/g, the “time of maximum concentration in liver postinjection” value ([1]; liver, single IV) was 5 min and the “AUC (AUC0–24h) liver” value ([1]; liver, single IV) was 301.3 µg·h/g. The C max liver ([1]; liver, single IV) was 43.8 ± 0.7 µg/g, the “lung C max of polyamide 2 relative to compound 1” value ([1]; lung, initial distribution) was “greater than 15 fold” and the “concentration in the lung maintained over the entire time course” value ([1]; lung, single IV) was over 21.8 ± 7.6 µg/g. The “time of peak concentration in lung following injection” value ([1]; lung, single IV) was 15 min, the “AUC (AUC0–24h) lung” value ([1]; lung, single IV) was 523.5 µg·h/g and the C max lung ([1]; lung, single IV) was 256 ± 93.1 µg/g. The concentration at 24 h [2, 5] was 490 ± 200 ng/mL, the C max ([2]; plasma, compartmental analysis (2-compartment model), single IV, 7.5 mg/kg (1), 5 mg/kg (2)) was 40200 ng/mL and the “AUC0–∞” value [2, 6] was 144800 ng·h/mL. For the same compound, the CL [2, 6] was 0.7 mL/h, the Vd [2, 6] was 0.004 L and the “t 1/2 α (initial)” value [2, 6] was 6 min. The “t 1/2 β (terminal)” value [2, 6] was 4.2 h, the “AUC0–t” value [2, 7] was 173500 ng·h/mL and the “AUC0–∞” value [2, 7] was 176500 ng·h/mL. The CL [2, 7] was 0.6 mL/h, the “Elimination t 1/2” value [2, 7] was 4.3 h and the MRT [2, 7] was 4.9 h. The C max ([2]; plasma, non-compartmental analysis, single IV, 7.5 mg/kg (1), 5 mg/kg (2), mean ± S.D., n = 3) was 41300 ± 5900 ng/mL.
